For one molecule, AUC free and AUC total results are on record in US20180344646A1, “AMORPHOUS DISPERSION GRANULES AND ORAL DOSAGE FORMS” (PATHEON DEVELOPMENT SERVICES INC., priority 2015, published 2018).

The structures appear in SMILES notation.

This series can be described thus: In vitro non-sink dissolution, gastric-to-intestinal media transfer test. It counts as physicochemical. On the set-up: AUC free: concentration or dose not given beside the values; AUC total: unit not given here. The conditions noted are these: for AUC free: free drug; for AUC total: non-sink.
[1] abbreviates: Table 5 (nifedipine), Fasted Simulated Gastric (0.1 N HCl).
Setting [2] is: Table 5 (nifedipine), Fasted Simulated Intestinal (FaSSIF, pH 6.8).

Turning to `COc1ccc2c(c1)c(CC(=O)O)c(C)n2C(=O)c1ccc(Cl)cc1` [indomethacin crystalline API, indomethacin], the AUC free is recorded as 0.0 (Table 2, Fasted Simulated Gastric (0.1 N HCl)); 63324.8 (Table 2, Fasted Simulated Intestinal (FaSSIF, H 6.8)); 68.9 under setting [1]; 1349.5 under setting [2]. Moreover, the AUC total by setting is: (Table 2, Fasted Simulated Gastric (0.1 N HCl), 2 mg indomethacin per mL) 1020.4; (Table 2, Fasted Simulated Intestinal (FaSSIF, H 6.8), 1 mg indomethacin per mL) 81054.9; under setting [1], 483.4; under setting [2], 2810.0.
